We go through four compounds from US5731328A, “Methods of inhibiting plasminogen activator inhibitor 1” (Eli Lilly and Company, priority 1996, dated 1998).

A word on the inhibition: it is the drop in the measured response relative to a control, in per cent.

In assay [1] the test system is Human umbilical vein endothelial cells (HUVEC). Nature of the assay: Responsiveness of HUVEC lots to 17-beta estradiol. It is filed as cell-based. Particulars: several lots of cells from Clonetics, initial experiments.
The next assay has as its system PAI-1. Particulars: post-menopausal women, estrogen therapy; cited from earlier work.
Assay [2] concerns secretion of PAI-1 from human endothelial cells (HUVEC). Nature of the assay: Endothelial cell PAI-1 assay: IL-1 induced PAI-1 secretion, Imubind Plasma PAI-1 ELISA. It is filed as cell-based. The protocol: 96 well tissue culture plates were prepared with 5×10^4 human endothelial cells (HUVEC) per well in Clonetics' Endothelial Cell Growth Medium (EGM) supplemented with 2% FBS. Following incubation overnight at 37° C., the medium was replaced with serum-free medium (DMEM/F-12 medium, 20 mM-HEPES, pH 7.5, 50 μg/ml gentamicin, 1 μg/ml human transferrin and 1 μg/ml bovine insulin) with or without compound 1, (where R1 and R2 are hydroxy, and […] is pyrrolidino), and with or without 1 nM IL-1-beta. Following incubation overnight at 37° C., samples of culture medium were assayed for secreted PAI-1 using the Imubind Plasma PAI-1 ELISA (American Diagnostic Inc. #822/1S).
Human umbilical vein endothelial cells (HUVEC) were treated with compound 1 concurrent to the induction of PAI-1 with IL-1. […] Further the positive effect of compound 1 on reducing PAI-1 may provide for acute uses in conditions where elevated levels are associated with pathology.
(In general: In an ELISA, binding on a coated surface is turned into a signal by an enzyme label.)

Another assay concerns estrogen receptor. As to conditions: cited from earlier work.

Consider `C[C@]12CC[C@@H]3c4ccc(O)cc4CC[C@H]3[C@@H]1CC[C@@H]2O` [17-beta estradiol], for which the “responsiveness of HUVEC lots (in words)” value in assay [1] is “not all lots were responsive”.

Regarding estrogen, in the assay with PAI-1, the “reduction of PAI-1 levels (in words)” value was “reduced to pre-menopausal levels”.

As to `O=C(c1ccc(OCCN2CCCC2)cc1)c1c(-c2ccc(O)cc2)sc2cc(O)ccc12` [Compound 1], the “induction of PAI-1 by IL-1 (in words)” value in assay [2] (0.5 nM, estrogen-responsive line) was “significantly reduced the induction of PAI-1 by IL-1”. The inhibition at 0.005 µM in assay [2] (Homo sapiens, 5 × 10^-9 M, IL-1 induced secretion, different lot of estrogen-responsive HUVEC, read-out: PAI-1 Level (% inhibition)) amounted to 82 ± 17%. Besides, in assay [2] (Homo sapiens, 5 × 10^-10 M, IL-1 induced secretion, different lot of estrogen-responsive HUVEC, read-out: PAI-1 Level (% inhibition)), the inhibition at 0.0005 µM was determined as 65 ± 8%. Also, the inhibition at 50 pM in assay [2] (Homo sapiens, 5 × 10^-11 M, IL-1 induced secretion, different lot of estrogen-responsive HUVEC, read-out: PAI-1 Level (% inhibition)) came to 48 ± 11%. The inhibition at 5 pM in assay [2] (Homo sapiens, 5 × 10^-12 M, IL-1 induced secretion, different lot of estrogen-responsive HUVEC, read-out: PAI-1 Level (% inhibition)) came out at 22 ± 4%. The inhibition at 500 fM in assay [2] (Homo sapiens, 5 × 10^-13 M, IL-1 induced secretion, different lot of estrogen-responsive HUVEC, read-out: PAI-1 Level (% inhibition)) is -1 ± 7%. Besides, in assay [2] (Homo sapiens, 5 × 10^-14 M, IL-1 induced secretion, different lot of estrogen-responsive HUVEC, read-out: PAI-1 Level (% inhibition)), the inhibition at 50 fM was 0%. In addition, the “PAI-1 Level (mean +/- SE, n = 4)” value in assay [2] (IL-1 & .5 nM compound 1, HUVEC, overnight at 37° C., serum-free medium, No IL-1 control 328 +/- 46, IL-1 alone 735 +/- 11) was 521 ± 52 ng/mL. Moreover, the “inhibition of IL-1 induced PAI-1 secretion, concentration dependence (in words)” value in assay [2] (different lot of estrogen-responsive cells) was “inhibited IL-1 induced secretion in a concentration-dependent manner”. In addition, in assay [2] (summary of Tables 1 and 2), the “inhibition of the induction of PAI-1 from activated endothelial cells (in words)” value was “very potent inhibitor”.

As to `O=C(c1ccc(OCCN2CCCCC2)cc1)c1c(-c2ccc(O)cc2)sc2cc(O)ccc12` [Raloxifene], the “binding to the estrogen receptor (in words)” value with estrogen receptor was “shown to bind to the estrogen receptor”.
